The CC50 is the concentration at which the toxic effect on the cells reaches its halfway point. The low end stands for harm at low concentration, the high end for better tolerance by the cells. What is called melting point is the temperature of the solid-liquid transition. The IC50 is the concentration that gives 50% inhibition. The IC90 is the concentration needed for an effect of 90%. A low value points to greater potency.

The values below come from patent US6911450B1, “Pyrimidine acyclonucleoside derivatives, preparation method and use thereof” (Universite de Geneve, priority 2001, dated 2005).

Like-named read-outs stand apart in the source and are kept apart here.

Data set [1] in a line: Cytotoxicity assay revealed by MTT after seven days of culture. It counts as cell-based, human. Particulars: human, PBMC, 50% diminution of growth and viability. On the procedure: (§1) Concurrently to the screening, and in the same conditions, cytotoxicity assays of the test compounds were carried out.
(§2) This assay has allowed to determine the concentration of the product causing a diminution of 50% of the growth and the viability of PBMC (CC50).
(§3) The PBMC were isolated as described in Ulmer and col., Immunobiology, 166(3), 238-250 (1984) from a healthy donor by a Ficoll gradient (Nicomed Pharma AS).
(§4) The PBMC were activated with phytohemagglutinine for three days and then cultivated in a 96-well plate, in a base medium (RPMI) supplemented with recombinant human Interleukin-2.
(§5) Throughout the culture, the cells were maintained at 37° C., in an atmosphere saturated in humidity, and under 5% CO2.

Data set [2] relates to HIV-1 lai strain. Description: Anti-HIV test on PBMC, viral replication measured by Reverse Transcriptase (RT) activity in culture supernatants. Type of data set: cell-based. The following applies: for IC50 / IC90: Human immunodeficiency virus 1, 168 h, against HIV-Lai on PBMC, 7 days, RT activity assay; for activity relative to that of its congeners or of its rivals: from Table 1. As for the experimental part:
The object of the screening is to evaluate the antiretroviral activity of the compounds of the present invention and of the Comparative Compounds on the HIV-1 lai strain cultivated on peripheral blood mononucleated cells (PBMC). For this purpose, the test compounds were incubated for seven days (duration of the anti-HIV test) with the PBMC in exponential phase of growth. The ability of the compounds to inhibit the viral replication was then measured in the culture supernatants either by an assay of the “Reverse Transcriptase” (RT) activity with the kit RetroSys TR (INNOVAGEN) or by an assay of the protein P24 with the kit Innotest HIV Antigen mAb Screening (IMMUNOGENETICS). The concentrations of the test compound causing 50 and 90% inhibition of the viral replication were determined. It concerns inhibition concentrations IC50 and IC90, respectively. The PBMC were isolated as described in Ulmer and col., Immunobiology, 166(3), 238-250 (1984) from a healthy donor by a Ficoll gradient (Nicomed Pharma AS). The PBMC were activated with phytohemagglutinine for three days and then cultivated in a 96-well plate, in a base medium (RPMI) supplemented with recombinant human Interleukin-2. Throughout the culture, the cells were maintained at 37° C., in an atmosphere saturated in humidity, and under 5% CO2. The PBMC were pre-treated for one hour in the presence of the test compounds at various concentrations, and then infected with 100 TCID50 of HIV-1-Lai [S. Wain-Hobson and col., Science 17, 252 (5008): 961-965 (1991)]. Three days after the infection with HIV-1, the half of the culture medium was changed and, at the day 7, the supernatants were taken and frozen at −20° C. Then, the viral replication was measured: a) by assaying the “Reverse Transcriptase” (RT) activity in the culture supernatants by means of the kit RetroSys (Innovagen). The RT contained in the supernatant synthesizes, in the presence of bromodeoxyuridine triphosphate (BrdUTP), a complementary strand DNA to a matrix immobilized on the bottom of the wells of a 96-well plate. The incorporation of BrdU is quantified by the fixation of an antibody anti-BrdU conjugated to the alkaline phosphatase. The activity of the attached alkaline phosphatase, measured by colorimetry, is proportional to the RT activity in the culture supernatant. The results described below are the results of at least two experiments which are distinct and carried out in triplicate.

Data set [3] concerns HIV-1. The following applies: cited from earlier work; for activity against HIV-1: prior art.
Data set [4] in a line: Combination test with AZT, ddI and ddC. Type of data set: cell-based.
Data set [5] has as its system Bone marrow cells of Balb/c mice. Description: Toxicity test on bone marrow cells (proliferation by Trypan blue count, differentiation by flow cytometry). It counts as cell-based. The following applies: for cell proliferation / proportions of lymphocytes B, myelocytes, neutrophiles and macrophages induced by the cytokines: mouse bone marrow cells, 5 days; for cell proliferation: 1×10^−12 to 1×10^−5 M, versus absence of compound; for proportions of lymphocytes B, myelocytes, neutrophiles and macrophages induced by the cytokines: whatever the concentration, presence versus absence of compound. As for the experimental part: Toxicity tests of Compounds No. 3 and 5 of the present invention were further carried out on bone marrow cells according to the following working method. Bone marrow cells of Balb/c mice were cultivated at the rate of 5×10^5 cells/ml in cultures of 1 ml in RPMI 1640 medium supplemented with 1 mM glutamine, 10% fetal calf serum, penicillin and streptomycin (GIBCO, USA). The cells were stimulated by addition of 1 ng/ml of Stem cell factor (c-kit ligand), IL3 and GM-CSF (Pharmingen, USA) in the presence of increasing concentrations of the Compounds 3 and 5 of the present invention ranging from 1×10^−12 to 1×10^−5 M. After 5 days of culture at 37° C., 5% CO2, the cells were recovered. The proliferation was evaluated by numeration of living cells in the presence of Trypan blue. The differentiation of the cells was evaluated by Flow Cytometry (Facs-Calibur, BECTON DICKINSON, USA) by double labeling of the cells with antibodies anti-CD38 conjugated with phycoerythrine (PE), anti-Gr1 conjugated with fluoresceine 5 (Fl), anti-Gr1-PE and anti-CD11b-Fl (Pharmingen, USA).

The subject of data set [6] is PBMC. Briefly: Cytotoxicity assay revealed by MTT after seven days of culture. The following applies: 7 days, 50% diminution of growth and viability. It counts as cell-based, human. As for the experimental part: as §1, §2, §3, §4, §5

In turn, `CCc1c(Cc2cc(C)cc(C)c2)n(COCCN(O)C(N)=O)c(=O)[nH]c1=O` [Comparative 1, 1-(2-N^1-hydroxyureidoethyloxymethyl)-6-(3,5-dimethylbenzyl)-5-ethyluracil] gave a melting point of 147 to 148 °C. Besides, the CC50 at 7 days in data set [1] is > 500000 nM. In data set [2], this molecule came in with an IC50 of 0.92 nM and an IC90 of 15 nM.
For the molecule `CCc1c(Cc2cc(C)cc(C)c2)n(COCCCCN(O)C(N)=O)c(=O)[nH]c1=O` [Comparative 2, 1-(4-N^1-hydroxyureidobutyloxymethyl)-6-(3,5-dimethylbenzyl)-5-ethyluracil], the melting point lay within 148 to 150 °C. Also, the CC50 at 7 days in data set [1] was > 50000 nM. In data set [2], the IC50 amounted to 2.3 nM and the IC90 is 30 nM.
With `CCc1c(Cc2ccccc2)n(COCCN(O)C(N)=O)c(=O)[nH]c1=O` [Comparative 3, 1-(2-N^1-hydroxyureidoethyloxymethyl)-6-benzyl-5-ethyluracile], the melting point is 276 to 277 °C. The CC50 at 7 days in data set [1] is > 250000 nM. In addition, the IC50 in data set [3] (against HIV-1, prior art) was 70 nM. In data set [3], the “activity against HIV-1” value is “only very moderately active”. In data set [2], this molecule registered an IC50 of 70 nM.
With `CCOCn1c(Cc2ccccc2)c(C(C)C)c(=O)[nH]c1=O` [Comparative 4, 1-ethyloxymethyl-6-benzyl-5-isopropyluracil, reference compound], the CC50 at 7 days in data set [1] is > 30000 nM. In data set [2], this molecule returned an IC50 of 2 nM.
Molecule `CCc1c(Cc2cc(C)cc(C)c2)n(COCCCNC(=O)NO)c(=O)[nH]c1=O` [Compound 1, 1-(3-N^3-hydroxyureidopropyloxymethyl)-6-(3,5-dimethylbenzyl)-5-ethyl-uracil] yielded a CC50 at 7 days in data set [1] of 260000 nM. In addition, in data set [2], it took 2.3 nM to reach half-maximal inhibition (IC50) and the concentration for an effect of 90% (IC90) came out at 9 nM.
`CCc1c(Cc2cc(C)cc(C)c2)n(COCCCN(O)C(N)=O)c(=O)[nH]c1=O` [Compound 2, 1-(3-N1-hydroxyureidopropyloxymethyl)-6-(3,5-dimethylbenzyl)-5-ethyl-uracil] returned a melting point of 165 to 167 °C. In data set [1], the CC50 at 7 days was > 300000 nM. For the same molecule, the “synergy with AZT, ddI and ddC” value in data set [4] is “exhibited a synergy”. Moreover, in data set [2], the IC50 was 0.24 nM and the IC90 came to 1.7 nM.
Molecule `Cc1cc(C)cc(Cc2c(C(C)C)c(=O)[nH]c(=O)n2COCCCN(O)C(N)=O)c1` [Compound 3, 1-(3-N^1-hydroxyureidopropyloxymethyl)-6-(3,5-dimethylbenzyl)-5-isopropyluracil] yielded a melting point of 88 to 90 °C. In data set [1], this molecule registered a CC50 at 7 days of 220000 nM. In data set [2], it took 0.0039 nM to reach the 90% level (IC90) and the “activity relative to that of its congeners or of its rivals” value is reported as 100,000 times. For the same molecule, in data set [5] (even at concentrations 1×10^6 time higher than those inhibiting HIV replication in human lymphocytes in vitro), the “toxic effects on bone marrow cells of mice” value is “no significant toxic effects”. In data set [5], the cell proliferation result is “identical to the one observed in the absence”; the “proportions of lymphocytes B, myelocytes, neutrophiles and macrophages induced by the cytokines” value is listed as “identical in the presence or in the absence”.
For `CC(=O)ON(CCCOCn1c(Cc2cc(C)cc(C)c2)c(C(C)C)c(=O)[nH]c1=O)C(N)=O` [Compound 4, 1-(3-N^1-acetoxyureidopropyloxymethyl)-6-(3,5-dimethylbenzyl)-5-isopropyluracile], the melting point lay within 77 to 79 °C. This molecule registered a CC50 at 7 days in data set [1] of 30000 nM. In addition, in data set [2], half-maximal inhibition (IC50) required 0.03 nM and it took 0.6 nM to reach the 90% level (IC90).
Molecule `Cc1cc(C)cc(Cc2c(C(C)C)c(=O)[nH]c(=O)n2COCCCN(OC(=O)C(C)(C)C)C(N)=O)c1` [Compound 5, 1-(3-N^1-pivaloyloxyureidopropyloxymethyl)-6-(3,5-dimethylbenzyl)-5-isopropyluracil] had a CC50 in data set [6] of 65000 nM. Moreover, in data set [2], the “activity relative to that of its congeners or of its rivals” value is 1,000,000 times. Besides, in data set [5], the “toxic effects on bone marrow cells of mice” value is listed as “no significant toxic effects”; the cell proliferation entry is given as “identical to the one observed in the absence”; the “proportions of lymphocytes B, myelocytes, neutrophiles and macrophages induced by the cytokines” value is “identical in the presence or in the absence”.
For the molecule `Cc1cn(C(C)OCCN(O)C(N)=O)c(=O)[nH]c1=O` (stereo not shown) [Formula B], the “activity against HIV-1” value in data set [3] was “totally inactive”.
